According to BindingDB's records for patent US20230295157 (Janssen Pharmaceutica, 2023):
pIC50: −log10 of the molar value.

How the values were obtained:
Coagulation factor XI = Coagulation factor XI (Homo sapiens, UniProt P03951); test: Factor XIa Inhibition Assay Utilizing a Fluorophore-Quencher Pair Peptide Substrate
Description: A fluorescence intensity (FLINT) based assay was used to monitor inhibition of Factor XIa. The peptide substrate, 5Fam-[…]-K5Tamra (purchased from New England Peptide) was chosen based on the FXI sequence. Conversion of zymogen FXI to its activated form, FXIa, occurs by proteolytic cleavage by […] at two sites, Arg146 and Arg180. The custom peptide used in this assay was based on the Arg146 cleavage site of FXI. The peptide substrate was designed with a fluorophore-quencher pair, where the fluorescence is quenched until FXIa cleaves the 8-mer peptide after the Arg residue. […] The Factor XIa FLINT assay was used with the following 5Fam-[…]-K5Tamra assay buffer: 50 mM Tris, pH 7.5, 100 mM NaCl, 5 mM CaCl2), 0.1 mg/mL BSA, 0.03% CHAPS. Assay buffer was prepared by mixing all ingredients fresh. 5Fam-[…]-K5Tamra peptide substrate was first prepared at 10 mM in 100% DMSO, then diluted to 3 mM in 100% DMSO.

Plasma kallikrein = Plasma kallikrein (Homo sapiens, UniProt P03952); test: Kallikrein Inhibition Assay Utilizing a Quenched AMC Peptide Substrate
Chain of Plasma kallikrein (P03952 20-390 limits assumed): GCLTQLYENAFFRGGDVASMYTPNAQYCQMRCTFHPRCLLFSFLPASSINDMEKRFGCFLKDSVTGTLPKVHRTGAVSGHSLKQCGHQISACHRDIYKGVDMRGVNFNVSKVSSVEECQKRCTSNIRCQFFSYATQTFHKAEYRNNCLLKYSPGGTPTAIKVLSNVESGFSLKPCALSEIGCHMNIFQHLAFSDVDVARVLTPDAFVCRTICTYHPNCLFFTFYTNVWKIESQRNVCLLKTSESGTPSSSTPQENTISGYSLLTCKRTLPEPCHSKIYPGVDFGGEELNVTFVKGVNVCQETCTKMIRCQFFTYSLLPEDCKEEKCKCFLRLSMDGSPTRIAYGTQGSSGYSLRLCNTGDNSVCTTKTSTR
Chain of Plasma kallikrein (P03952 391-638 limits assumed): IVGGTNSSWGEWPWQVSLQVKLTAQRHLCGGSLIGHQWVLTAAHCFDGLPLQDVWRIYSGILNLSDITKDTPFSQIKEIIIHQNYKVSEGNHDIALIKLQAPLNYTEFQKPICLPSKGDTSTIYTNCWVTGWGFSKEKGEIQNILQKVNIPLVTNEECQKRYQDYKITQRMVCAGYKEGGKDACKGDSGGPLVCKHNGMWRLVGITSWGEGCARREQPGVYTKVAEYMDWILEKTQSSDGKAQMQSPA
Method: A fluorescence intensity (FLINT) based assay was used to monitor inhibition of human plasma kallikrein. The peptide substrate, Z-Gly-Pro-Arg-AMC (Purchased from Bachem; Catalog #I-1150) was chosen based on its relatively low KM for kallikrein which enables running the assay at lower substrate concentrations to control background fluorescence. The kinetic parameters for this substrate were determined by fitting titration data to the Michaelis-Menten equation yielding a KM=40 μM, kcat=0.76 s−1, and kcat/KM=18932 M−1s−1. The Kallikrein FLINT assay was used with the following Z-Gly-Pro-Arg-AMC assay buffer: 50 mM Tris, pH 7.5, 100 mM NaCl, 5 mM CaCl2), 0.1 mg/mL BSA, 0.03% CHAPS. Assay buffer was prepared by mixing all ingredients fresh. 2×Z-Gly-Pro-Arg-AMC peptide substrate was prepared by diluting 10 mM stock into 1×assay buffer for a 100 μM working concentration (50 μM final concentration). The 2×kallikrein stock solution was prepared by diluting 14.76 μM stock in 1×assay buffer for a 4 nM working stock solution (2 nM final concentration).

Chain of Coagulation factor XI (P03951 19-387 limits assumed): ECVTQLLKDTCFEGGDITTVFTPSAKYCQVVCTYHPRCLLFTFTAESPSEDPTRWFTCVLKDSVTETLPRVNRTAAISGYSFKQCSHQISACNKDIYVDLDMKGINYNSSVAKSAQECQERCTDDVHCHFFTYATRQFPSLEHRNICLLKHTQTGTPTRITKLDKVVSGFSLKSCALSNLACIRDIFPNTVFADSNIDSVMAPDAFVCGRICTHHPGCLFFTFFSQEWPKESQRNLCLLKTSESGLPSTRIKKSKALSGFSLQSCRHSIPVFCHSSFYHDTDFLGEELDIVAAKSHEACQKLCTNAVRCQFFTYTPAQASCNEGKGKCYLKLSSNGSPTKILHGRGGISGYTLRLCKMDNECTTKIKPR
Chain of Coagulation factor XI (P03951 388-625 limits assumed): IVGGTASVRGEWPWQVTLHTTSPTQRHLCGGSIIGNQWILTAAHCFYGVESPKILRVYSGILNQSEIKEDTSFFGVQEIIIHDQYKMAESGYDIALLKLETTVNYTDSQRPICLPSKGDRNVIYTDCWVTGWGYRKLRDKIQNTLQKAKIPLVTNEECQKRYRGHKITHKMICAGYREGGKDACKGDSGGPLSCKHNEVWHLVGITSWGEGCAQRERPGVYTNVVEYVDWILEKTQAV

pIC50 (Coagulation factor XI) | pIC50 (Plasma kallikrein) | Structure (SMILES)
7.32 | 6.99 | O=C1C=C(c2c(-n3cnnn3)ccc(Cl)c2F)C[C@H]2CC[C@@H](c3nc(-c4csc(CO)n4)c[nH]3)N12 [US20230295157, Example 22]
8.39 | 8.22 | NC(=O)c1ccc(-c2cnc([C@@H]3CC[C@@H]4CC(c5c(-n6cnnn6)ccc(Cl)c5F)=CC(=O)N43)[nH]2)cc1F [US20230295157, Example 197]

Structure (SMILES) | pIC50 (Coagulation factor XI) | pIC50 (Plasma kallikrein)
C[C@H](CO)Oc1nccc(-c2cnc([C@@H]3CC[C@H]4CC(c5c(-n6cnnn6)ccc(Cl)c5F)=CC(=O)N43)[nH]2)c1F (relative stereo) [US20230295157, Example 169] | 7.37 | 7.40
